Source: patent publication US20210308089A1, “METHODS OF TREATING AND/OR PREVENTING VIRAL INFECTIONS AND/OR DISEASES CAUSED BY VIRUSES IN A SUBJECT IN NEED THEREOF” (priority 2020, published 2021)

Tested on: hs-CRP, D-dimer, ESR, blood counts, NLR, systemic immune-inflammation index
Experiment: VASCEPA-COVID-19: inflammatory biomarkers, baseline to day 14 follow-up, IPE vs usual care
Format: in vivo, human
Experimental: This was a 14-day long, prospective, multi-site, two-armed, randomized, open-label study of approximately 100 individuals in Canada with a COVID-19-positive diagnosis or who have recently undergone testing for SARS-CoV-2. […] Blood samples are collected to determine if IPE use lowers circulating pro-inflammatory biomarkers.
Eligible patients were randomly allocated to the IPE group or the usual care group. Randomization was performed using envelope randomization via stratification using random permuted blocks. Patients allocated to the IPE group received a loading dose of 4 g IPE twice daily for 3 days followed by 2 g twice daily for 11 days. The usual care group received no intervention. Participant characteristics were obtained at baseline, while blood samples and clinical outcomes were obtained/measured at baseline and at follow-up.
The primary biomarker endpoint was the change in high-sensitivity C-reactive protein (hs-CRP) levels from baseline (day 1) to follow-up (day 14+3) within-groups. D-dimer, erythrocyte sedimentation rate (ESR), complete blood count, differential count, serum albumin levels, the neutrophil-to-lymphocyte ratio (NLR), and the systemic immune-inflammation index (defined by platelet count multiplied by NLR) from baseline to follow-up were secondary biomarker endpoints. The clinical endpoint was the change in InFLUenza Patient-Reported Outcome (FLU-PRO©) diary scores (total and domain breakdown). The FLU-PRO© score is designed to evaluate the presence, severity, and duration of influenza symptoms in clinical trials and standardize symptom assessment with respect to viral infections. The diary provides a comprehensive evaluation of symptomology over 32 distinct questions. Respondents answer on an ordinal scale from 0-4 across six domains: Body/Systemic, Chest/Respiratory, Eyes, Gastrointestinal, Nose, and Throat. The validity and reliability of the FLU-PRO© diary has been investigated. The ability to successfully adapt the measure for COVID-19 experimentation has also been explained (www.evidera.com/flu-pro/). […] Additional clinical endpoints included measuring FLU-PRO© symptom prevalence and investigating correlations between improvements in FLU-PRO© and decreases in hs-CRP levels.
Baseline characteristics, biomarkers, and clinical endpoints were described as frequencies and percentages (for categorical data) or medians with interquartile ranges (for continuous variables). Cohort comparisons were performed with the Wilcoxon Signed Rank (within-group), Mann-Whitney U (between group, continuous variables) or Fisher's Exact (between group, categorical variables) statistical tests. Within- and between-group p-values describing clinical (FLU-PRO©) score changes were conducted using a Wald test on least squares-mean estimated treatment difference, from an analysis of variance (ANOVA) model. Within- and between-group comparisons for the primary biomarker endpoint included median change from baseline. hs-CRP analyses were conducted with unadjusted and adjusted data (for sex, age [men <45 versus ≥45 years and women <55 versus ≥55 years], and baseline cardiovascular risk [absence or presence of cardiovascular comorbidities]). The model adjustments for baseline covariates were warranted based on current literature. Remaining unadjusted secondary biomarker data were evaluated via two-tailed within-group Wilcoxon Signed Rank Tests and between-group Mann-Whitney Tests. The prevalence and change from baseline total and individual domain FLU-PRO© scores were calculated as measures of alterations in symptom severity. Correlations between FLU-PRO© score improvement and hs-CRP reduction were calculated using the Spearman correlation coefficient. A p-value of less than 0.05 was considered significant without multiplicity adjustment, and all analyses were conducted using a modified intention-to-treat model.

[1] = 14 + 3 Days, n = 44, within-group P 0.07
[2] = 14 + 3 Days, n = 44, within-group P <0.01

CC/C=C\C/C=C\C/C=C\C/C=C\C/C=C\CCCC(=O)OCC [icosapent ethyl, eicosapentaenoic acid ethyl ester]
hs-CRP median, 14 + 3 Days (14 + 3 Days, n = 44, IQR 0.6, 4.4): 1.6 mg/L | SII (systemic immune-inflammation index, median), 14 + 3 Days (14 + 3 Days, n = 44, product of NLR*platelets, within-group P <0.01): 4.319e+11 L⁻¹ | WBC Differential, Lymphocytes (median), 14 + 3 Days (14 + 3 Days, n = 44, within-group P 0.01): 2.4e+09 L⁻¹ | MCV (median), 14 + 3 Days (14 + 3 Days, n = 44, within-group P 0.03): 87.5 fL | NLR (neutrophil-lymphocyte ratio, median), 14 + 3 Days [1]: 1.6 | WBC Differential, Basophils (median), 14 + 3 Days [1]: 0 L⁻¹ | WBC Differential, Eosinophils (median), 14 + 3 Days [1]: 1e+08 L⁻¹ | WBC Differential, Monocytes (median), 14 + 3 Days (14 + 3 Days, n = 44, within-group P 0.08): 6e+08 L⁻¹ | RDW (median), 14 + 3 Days (14 + 3 Days, n = 44, within-group P 0.14): 12.5 % CV | eGFR (median), 14 + 3 Days (14 + 3 Days, n = 44, within-group P 0.17): 87.0 mL/min/1.73 m^2 | Lipid Assessment, Triglycerides (median), 14 + 3 Days (14 + 3 Days, n = 44, within-group P 0.19): 1.5 mmol/L | ESR (median), 14 + 3 Days (14 + 3 Days, n = 44, within-group P 0.20): 15.5 mm/hr | Creatinine (median), 14 + 3 Days (14 + 3 Days, n = 44, within-group P 0.21): 73.5 µmol/L | MCHC (median), 14 + 3 Days (14 + 3 Days, n = 44, within-group P 0.22): 339.5 g/L | MCH (median), 14 + 3 Days (14 + 3 Days, n = 44, within-group P 0.40): 29.4 pg | Albumin (median), 14 + 3 Days (14 + 3 Days, n = 44, within-group P 0.88): 43.0 g/L | HbA1C (median), 14 + 3 Days [2]: 5.1% | Hematocrit (median), 14 + 3 Days [2]: 0.4 L/L | Hemoglobin (median), 14 + 3 Days [2]: 130.5 g/L | Lipid Assessment, HDL-C (median), 14 + 3 Days [2]: 1.2 mmol/L | Lipid Assessment, LDL-C (median), 14 + 3 Days [2]: 2.5 mmol/L | Lipid Assessment, Non-HDL-C (median), 14 + 3 Days [2]: 3.3 mmol/L | Lipid Assessment, Total Cholesterol (median), 14 + 3 Days [2]: 4.7 mmol/L | Platelet (median), 14 + 3 Days [2]: 2.615e+11 L⁻¹ | RBC Count (median), 14 + 3 Days [2]: 4.7e+12 L⁻¹ | WBC Count (median), 14 + 3 Days [2]: 7.3e+09 L⁻¹ | WBC Differential, Neutrophils (median), 14 + 3 Days [2]: 3.9e+09 L⁻¹ | Albumin (median), Baseline (Baseline, n = 44): 44.0 g/L | Creatinine (median), Baseline (Baseline, n = 44): 74.0 µmol/L | D-dimer (median), Baseline (Baseline, n = 44): 324.0 µg/L | ESR (median), Baseline (Baseline, n = 44): 18.0 mm/hr | Erythrocyte Sedimentation Rate (median), Baseline (Baseline, n = 44): 18.0 mm/hour | HbA1C (median), Baseline (Baseline, n = 44): 5.2% | Hematocrit (median), Baseline (Baseline, n = 44): 0.4 L/L | Hemoglobin (median), Baseline (Baseline, n = 44): 139.5 g/L | Lipid Assessment, HDL-C (median), Baseline (Baseline, n = 44): 1.1 mmol/L | Lipid Assessment, LDL-C (median), Baseline (Baseline, n = 44): 2.2 mmol/L | Lipid Assessment, Non-HDL-C (median), Baseline (Baseline, n = 44): 3.2 mmol/L | Lipid Assessment, Total Cholesterol (median), Baseline (Baseline, n = 44): 4.3 mmol/L | Lipid Assessment, Triglycerides (median), Baseline (Baseline, n = 44): 1.4 mmol/L | MCH (median), Baseline (Baseline, n = 44): 30.0 pg | MCHC (median), Baseline (Baseline, n = 44): 338.0 g/L | MCV (median), Baseline (Baseline, n = 44): 86.5 fL | NLR (neutrophil-lymphocyte ratio, median), Baseline (Baseline, n = 44): 1.7 | Platelet (median), Baseline (Baseline, n = 44): 2.27e+11 L⁻¹ | RBC Count (median), Baseline (Baseline, n = 44): 4.9e+12 L⁻¹ | RDW (median), Baseline (Baseline, n = 44): 12.3 % CV | WBC Count (median), Baseline (Baseline, n = 44): 6.1e+09 L⁻¹ | WBC Differential, Basophils (median), Baseline (Baseline, n = 44): 0 L⁻¹ | WBC Differential, Eosinophils (median), Baseline (Baseline, n = 44): 1e+08 L⁻¹ | WBC Differential, Lymphocytes (median), Baseline (Baseline, n = 44): 1.9e+09 L⁻¹ | WBC Differential, Monocytes (median), Baseline (Baseline, n = 44): 5e+08 L⁻¹ | WBC Differential, Neutrophils (median), Baseline (Baseline, n = 44): 3e+09 L⁻¹ | eGFR (median), Baseline (Baseline, n = 44): 86.0 mL/min/1.73 m^2 | hs-CRP median, Baseline (Baseline, n = 44, IQR 0.9, 11.6): 3.2 mg/L | SII (systemic immune-inflammation index, median), Baseline (Baseline, n = 44, product of NLR*platelets): 3.398e+11 L⁻¹ | D-dimer (median), Day 14 + 3 (Day 14 + 3, n = 44, within-group P 0.048): 286.5 µg/L | Erythrocyte Sedimentation Rate (median), Day 14 + 3 (Day 14 + 3, n = 44, within-group P 0.20): 15.5 mm/hour | Median hs-CRP change at follow-up (baseline (day 1) to day 14+3, 8 g/day for 3 days, then 4 g/day for 11 days): -0.5 mg/L | hs-CRP Median Change from Baseline (baseline to day 14 + 3, n = 44, IQR −6.9, 0.4, within-group P 0.011, between-group P 0.082 unadjusted, 0.043 adjusted): -0.5 mg/L | hs-CRP Median Percent Change from Baseline (baseline to day 14 + 3, n = 44, IQR −80.1, 26.7): −25.0% | hs-CRP reduction from baseline levels (baseline to day 14+3, within IPE group): 25%
